Measured values reported in patent publication US11547681B2, “N-acylethanolamide derivatives and uses thereof” (ELIEM THERAPEUTICS, INC., priority 2016, dated 2023).

Legend:
in vitro [1] = conditions: male, Beagle, dog
Protocol: (§1) Reaction mixture, minus cofactors, was prepared as described below. Test article was added into the reaction mixture at a final concentration of 1 μM. […] An aliquot of the reaction mixture (without cofactor cocktail) was equilibrated in a shaking water bath at 37° C. for 3 minutes. The reaction was initiated by the addition of cofactor cocktail, and the mixture was incubated in a shaking water bath at 37° C. Aliquots (100 μL) were withdrawn at 0, 10, 20, 30, and 60 minutes. Test article samples were immediately combined with 300 μL of ice-cold acetonitrile containing 1% formic acid. Control samples were immediately combined with 400 μL of ice-cold 50/50 acetonitrile (ACN)/dH2O containing 0.1% formic acid and internal standard to terminate the reaction. Samples were then mixed and centrifuged to precipitate proteins. Calibration standards were prepared in matched matrix. Samples and standards were assayed by LC-MS/MS using electrospray ionization for both the dosed prodrug and the expected drug (PEA). Analytical conditions are outlined in Appendix 8-1. Test article concentration at each time point was compared to test article concentration at time 0 to determine the percent remaining at each time point. Halflives were calculated using GraphPad software, fitting to a single-phase exponential decay equation.
as §1, with “for 5” for “for 3”, “minutes. Reaction” for “minutes. The reaction”, “and” for “and the”, “both” for “both the”, “Appendix 10-1.” for “Appendix 8-1.”
(§2) Reaction mixture, minus cofactors, was prepared as described below. Test article was added into the reaction mixture at a final concentration of 1 μM. […] An aliquot of the reaction mixture (without cofactor cocktail) was equilibrated in a shaking water bath at 37° C. for 3 minutes. Reaction was initiated by the addition of cofactor cocktail, and the mixture was incubated in a shaking water bath at 37° C. Aliquots (100 μL) were withdrawn at 0, 10, 20, 30, and 60 minutes. Test article samples were immediately combined with 300 μL of ice-cold acetonitrile containing 1% formic acid. Control samples were immediately combined with 400 μL of ice-cold 50/50 acetonitrile (ACN)/dH2O containing 0.1% formic acid and internal standard to terminate the reaction. Samples were then mixed and centrifuged to precipitate proteins. Calibration standards were prepared in matched matrix. Samples and standards were assayed by LC-MS/MS using electrospray ionization for both dosed prodrug and expected drug (PEA). Analytical conditions are outlined in Appendix 13-1. Test article concentration at each time point was compared to test article concentration at time 0 to determine the percent remaining at each time point. Halflives were calculated using GraphPad software, fitting to a single-phase exponential decay equation.

in vitro [2] = conditions: both, human
Protocol: (§3) The reaction mixture, minus cofactors, was prepared as described below. The test article was added into the reaction mixture at a final concentration of 1 μM. […] An aliquot of the reaction mixture (without cofactor cocktail) was equilibrated in a shaking water bath at 37° C. for 3 minutes. The reaction was initiated by the addition of cofactor cocktail, and the mixture was incubated in a shaking water bath at 37° C. Aliquots (100 μL) were withdrawn at 0, 10, 20, 30, and 60 minutes. All samples were immediately combined with 400 uL of icecold 50/50 acetonitrile/H2O containing 0.1% formic acid and internal standard to terminate the reaction. The samples were then mixed and centrifuged to precipitate proteins. Calibration standards were prepared in matched matrix. All samples and standards were assayed by LC-MS/MS using electrospray ionization for both the dosed prodrug I-9 and the expected drug (PEA). Analytical conditions are outlined in Appendix 4-1. The test article concentration at each time point was compared to the test article concentration at time 0 to determine the percent remaining at each time point. Half-lives were calculated using GraphPad software, fitting to single-phase exponential decay equation.
as §1
as §2, with “for 5” for “for 3”, “and” for “and the”, “Appendix 10-1.” for “Appendix 13-1.”
(§4) Reaction mixture, minus cofactors, was prepared as described below.

in vitro [3] = conditions: male, Sprague-Dawley, rat
Protocol: as §3, §1
as §2, with “for 5” for “for 3”, “and” for “and the”, “Appendix 10-1.” for “Appendix 13-1.”
as §4

- Concentration (μM) of analyte PEA, 0 min (in vitro [1]; 0 min, 1 μM): 0.26 µM
- Concentration (μM) of analyte PEA, 10 min (in vitro [1]; 10 min, 1 μM): 0.48 µM
- Concentration (μM) of analyte PEA, 20 min (in vitro [1]; 20 min, 1 μM): 0.47 µM
- Concentration (μM) of analyte PEA, 30 min (in vitro [1]; 30 min, 1 μM): 0.46 µM
- Concentration (μM) of analyte PEA, 60 min (in vitro [1]; 60 min, 1 μM): 0.45 µM
- % Remaining of Initial (n = 1), 0 min (in vitro [1]; s9, 0 h, 1 μM): 100%
- % Remaining of Initial (n = 1), 10 min (in vitro [1]; s9, 10 min, 1 μM): <1.0%
- % Remaining of Initial (n = 1), 20 min (in vitro [1]; s9, 20 min, 1 μM): <1.0%
- % Remaining of Initial (n = 1), 30 min (in vitro [1]; s9, 0.5 h, 1 μM): <1.0%
- % Remaining of Initial (n = 1), 60 min (in vitro [1]; s9, 1 h, 1 μM): <1.0%
- microsomal CLint at 1 μM (in vitro [1]; s9, CLint (mL/min/mg protein)): > 691 µL/min/mg
- half-life at 1 μM (in vitro [1]; s9, Half-life (min)): < 1 min
- Concentration (μM) of analyte PEA, 0 min (in vitro [2]; 0 min, 1 μM): 0.048 µM
- Concentration of analyte I-9 (in vitro [2]; 0 min, 1 μM): 610 nM
- Concentration of analyte PEA (in vitro [2]; 0 min, 1 μM): 210 nM
- Concentration (μM) of analyte PEA, 10 min (in vitro [2]; 10 min, 1 μM): 0.18 µM
- Concentration of analyte I-9 (in vitro [2]; 10 min, 1 μM): 360 nM
- Concentration of analyte PEA (in vitro [2]; 10 min, 1 μM): 500 nM
- Concentration (μM) of analyte PEA, 20 min (in vitro [2]; 20 min, 1 μM): 0.23 µM
- Concentration of analyte I-9 (in vitro [2]; 20 min, 1 μM): 99 nM
- Concentration of analyte PEA (in vitro [2]; 20 min, 1 μM): 690 nM
- Concentration (μM) of analyte PEA, 30 min (in vitro [2]; 30 min, 1 μM): 0.22 µM
- Concentration of analyte I-9 (in vitro [2]; 30 min, 1 μM): 29 nM
- Concentration of analyte PEA (in vitro [2]; 30 min, 1 μM): 650 nM
- Concentration (μM) of analyte PEA, 60 min (in vitro [2]; 60 min, 1 μM): 0.18 µM
- Concentration of analyte I-9 (in vitro [2]; 60 min, 1 μM): 4.3 nM
- Concentration of analyte PEA (in vitro [2]; 60 min, 1 μM): 660 nM
- % Remaining of Initial (n = 1) (in vitro [2]; s9, 0 h, 1 μM): 100%
- % Remaining of Initial (n = 1), 0 min (in vitro [2]; s9, 0 h, 1 μM): 100%
- % Remaining of Initial (n = 1) (in vitro [2]; s9, 10 min, 1 μM): 59%
- % Remaining of Initial (n = 1), 10 min (in vitro [2]; s9, 10 min, 1 μM): 28%
- % Remaining of Initial (n = 1) (in vitro [2]; s9, 20 min, 1 μM): 16%
- % Remaining of Initial (n = 1), 20 min (in vitro [2]; s9, 20 min, 1 μM): 5.7%
- % Remaining of Initial (n = 1), 30 min (in vitro [2]; s9, 0.5 h, 1 μM): 1.2%
- % Remaining of Initial (n = 1) (in vitro [2]; s9, 1 h, 1 μM): <1.0%
- % Remaining of Initial (n = 1), 60 min (in vitro [2]; s9, 1 h, 1 μM): <1.0%
- microsomal CLint at 1 μM (in vitro [2]; s9, CLint): > 69.3 µL/min/mg
- microsomal CLint at 1 μM (in vitro [2]; s9, CLint (mL/min/mg protein)): 131 µL/min/mg
- microsomal CLint at 1 μM (in vitro [2]; s9, CLint, calculated value in parentheses): 75.3 µL/min/mg
- half-life at 1 μM (in vitro [2]; s9, Half-Life, calculated value in parentheses): 9.2 min
- half-life at 1 μM (in vitro [2]; s9, Half-life): < 10 min
- half-life at 1 μM (in vitro [2]; s9, Half-life (min)): 5.3 min
- Concentration (μM) of analyte PEA, 0 min (in vitro [3]; 0 min, 1 μM): 0.034 µM
- Concentration of analyte I-9 (in vitro [3]; 0 min, 1 μM): 770 nM
- Concentration of analyte PEA (in vitro [3]; 0 min, 1 μM): 31 nM
- Concentration (μM) of analyte PEA, 10 min (in vitro [3]; 10 min, 1 μM): 0.22 µM
- Concentration of analyte I-9 (in vitro [3]; 10 min, 1 μM): 910 nM
- Concentration of analyte PEA (in vitro [3]; 10 min, 1 μM): 88 nM
- Concentration (μM) of analyte PEA, 20 min (in vitro [3]; 20 min, 1 μM): 0.31 µM
- Concentration of analyte I-9 (in vitro [3]; 20 min, 1 μM): 680 nM
- Concentration of analyte PEA (in vitro [3]; 20 min, 1 μM): 130 nM
- Concentration (μM) of analyte PEA, 30 min (in vitro [3]; 30 min, 1 μM): 0.36 µM
- Concentration of analyte I-9 (in vitro [3]; 30 min, 1 μM): 580 nM
- Concentration of analyte PEA (in vitro [3]; 30 min, 1 μM): 160 nM
- Concentration (μM) of analyte PEA, 60 min (in vitro [3]; 60 min, 1 μM): 0.39 µM
- Concentration of analyte I-9 (in vitro [3]; 60 min, 1 μM): 380 nM
- Concentration of analyte PEA (in vitro [3]; 60 min, 1 μM): 240 nM
- % Remaining of Initial (n = 1) (in vitro [3]; s9, 0 h, 1 μM): 100%
- % Remaining of Initial (n = 1), 0 min (in vitro [3]; s9, 0 h, 1 μM): 100%
- % Remaining of Initial (n = 1) (in vitro [3]; s9, 10 min, 1 μM): 119%
- % Remaining of Initial (n = 1), 10 min (in vitro [3]; s9, 10 min, 1 μM): 45%
- % Remaining of Initial (n = 1) (in vitro [3]; s9, 20 min, 1 μM): 88%
- % Remaining of Initial (n = 1), 20 min (in vitro [3]; s9, 20 min, 1 μM): 26%
- % Remaining of Initial (n = 1) (in vitro [3]; s9, 0.5 h, 1 μM): 75%
- % Remaining of Initial (n = 1), 30 min (in vitro [3]; s9, 0.5 h, 1 μM): 15%
- % Remaining of Initial (n = 1) (in vitro [3]; s9, 1 h, 1 μM): 49%
- % Remaining of Initial (n = 1), 60 min (in vitro [3]; s9, 1 h, 1 μM): 3.6%
- microsomal CLint at 1 μM (in vitro [3]; s9, CLint): 125 µL/min/mg
- half-life at 1 μM (in vitro [3]; s9, Half-life): 55 min
Structure (SMILES): CCCCCCCCCCCCCCCC(=O)NCCOC(=O)CCC(=O)OCC(O)CO (stereo not drawn) [Compound I-9]
